No end group written: not given here.
System: drug-resistant Mycobacterium tuberculosis
Details: drug-resistant Mycobacterium tuberculosis (PAS, streptomycin, INH); peptide 10 micrograms per ml; seven days

## SFLLRNPNDKYEPF-OH [TRAP-14]
  % inhibition: 0.0%

From patent US20100210559A1, “TRAP-14 AS A THERAPEUTIC AGENT” (priority 2007, published 2010)
